“Also recorded” adds a separate entry of the source.
Tests used:
OCI MM cells = assay: MTT cell growth and survival assay, OCI MM cells; type: cell-based; settings: 72 hours; for IC50: MTT assay; for Growth and survival of OCI cells (in words): MTT, FIG. 2B/3B
Protocol: (§1) To determine the effect of AG and WP compounds on MM cell growth/survival, MM cells were incubated with the indicated concentration of AG or WP for 72 hours before cell growth and survival were estimated by MTT assay.
(§2) To determine the effect of AG and WP compounds on MM cell growth/survival MM cells were incubated with the indicated concentration of AG or WP for 72 hours before cell growth and survival were estimated by MTT assay.

MM-1 MM cells = assay: MTT cell growth and survival assay, MM-1 MM cells; type: cell-based; settings: 72 hours; for IC50: MTT assay, read-out: IC50 (μM) MM1; for Growth and survival of MM1 cells (in words): MTT, FIG. 2A/3A
Protocol: as §1, §2

U266 MM cells = assay: MTT cell growth and survival assay, U266 MM cells; type: cell-based; settings: 72 hours; for Growth and survival of U266 cells (in words): MTT, FIG. 2C/3C; for IC50: Homo sapiens, U-266, MTT assay
Protocol: as §1, §2

c-myc [1] = assay: c-myc protein expression by immunoblot in MM cells; type: cell-based; parameters: key to C-Myc: (inhibition = ↓); (no effect) = —; settings: for c-myc expression, temporal effects: MM-1 cells, 25 and 50 μM, 30, 60, 120 min; for C-Myc: c-myc downregulation, immunoblot
Protocol: (§3) To determine the effect of compounds on both Stat3 activation and c-myc protein expression MM-1, OCI-My5 and U266 cells were incubated with 25 μM of AG1801, AG490, WP1038, WP1039, WP1051, or WP1052 for 2 hours before cells were stimulated with 2 ng/ml IL-6 for 10 min. Cell lysates were prepared and immunoblotted for p-Stat3, Stat3, c-myc and actin (as a control).
(§4) To determine the temporal effects and mechanism of action of AG490 and AG1801 action on c-myc expression in MM cells, MM-1 cells were incubated with 0, 25, or 50 μM of AG490 or AG1801 and harvested at 30, 60, or 120 min. Lysates were immunoblotted for c-myc or actin as a protein loading control. […] Semi-quantitative PCR was used to measure changes in c-myc mRNA extracted from cells treated for 30 min with AG1801 at 25 μM. GAPDH PCR was used as a control.
These compounds were evaluated for their signal inhibitory and anti-proliferative/apoptotic properties on multiple myeloma, lymphoma and chronic myelogenous leukemia cell lines. WP1015, WP1034, AG1801, and AG490 were tested across a range of concentrations (6,12, and 25 μM) for their ability to inhibit c-myc expression using immunoblots.
These immunoblots tested a range of concentrations (1.56-25 μM for WP compounds) and used β-actin as a control.

Stat3 [2] = assay: IL-6 mediated Stat3 activation (p-Stat3 immunoblot) in MM cells; type: cell-based; parameters: key to P-Stat 3: (inhibition = ↓); (no effect) = —; settings: for Suppression of IL-6 signaling (Stat3 activation): MM-1 cells, 2 hr pretreatment, 12 and 25 μM, IL-6 10 min; for P-Stat 3: Stat3 inhibition
Protocol: (§5) To examine the effect of newly synthesized AG and WP compounds on cytokine-mediated Stat activation, multiple myeloma (MM-1) cells were pretreated with AG490 or AG1801 at 2.5, 12, and 25 μM concentrations (for 2 hr) before stimulating cells with IL-6 or IFN-α for 10 min. Stat3 and Stat1 expression and activation were examined by immunoblotting.
as §3, with “control). Both Stat3 activation and c-myc expression were effected by WP and AG compounds.” for “control).”

[3] = test system: MM colonies from bone marrow aspirates of MM patients; assay: Primary MM colony formation in methyl-cellulose; type: cell-based, human; settings: 7 to 10 days
Protocol: To determine whether these compounds effect primary MM colony growth bone marrow aspirates from MM patients were partially-purified by magnetic bead separation and analyzed for immunoglobulin heavy-chain gene rearrangement by PCR. Cells were grown as colonies in methyl-cellulose in the presence or absence of AG compound as noted for 7 to 10 days. Control colonies were examined for Ig heavy chain gene rearrangement to confirm the clonal nature of the population.

OCI-My5 cells = assay: Caspase activation and PARP cleavage in OCI-My5 cells; type: cell-based; settings: 12.5 and 25 μM
Protocol: To determine whether AG1801 effects caspase activation in MM cells, OCI-My5 cells were treated as described above before cell lysates were examined for casapase activation and PARP cleavage. […] At 12.5 and 25 μM, AG490 was ineffective in caspase activation and PARP clevage in these cells.

Jak2/Stat3 signaling = settings: literature; cited from earlier work
[4] = literature; cited from earlier work
c-myc mRNA = assay: Semi-quantitative PCR of c-myc mRNA in MM-1 cells; type: cell-based; settings: 25 μM, 30 min
Protocol: as §4

IFN-α signaling = IFN-α signaling (Stat1) immunoblot in MM-1 cells; type: cell-based; settings: 12 and 25 μM, IFN-α 10 min
Protocol: as §5

[5] = test system: human A375 melanoma tumors; assay: A375 melanoma tumors in nude mice; type: in vivo, Swiss nude mice; settings: 40 mg/kg i.p. every other day, 8 injections from day 7, to day 21
Protocol: The results of animal studies of human A375 melanoma tumors growing in nude mice, treated with WP1066 after tumors reached a palpable size, are shown in FIG. 8. The following animal model was used to evaluate the anti-tumor and anti-cancer effects of the compounds: on Day 0, A375 cells were suspended to 20×10^6 cells/ml in RPMI 1640 medium. On day 0, 0.2 ml of this suspension containing A375 cells was injected (s.c.) into female Swiss nude mice 6-7 weeks of age. On Day 7, 40 mg/kg of WP1066 was injected (i.p.) into the above mice in a 0.1 ml suspension of DMSO/PEG300 (50/50) on a qd, every other day schedule for 8 injections. Five mice per experimental group were used, including a vehicle (DMSO/PEG300) control group. Animals received 40 mg/kg WP1066 every other day […] for a total of 8 injections. The control group reached maximum tumor burden at day 21, and for this reason the experiment was stopped.

c-myc [6] = assay: c-myc protein immunoblot in LP non-Hodgkin lymphoma cells; type: cell-based
Protocol: Additional cell types were examined for response to treatment with WP1066.
(§6) Further studies were conducted to determine the dose and time dependent effects of these new compounds on IL-6 mediated Stat3 activation, c-myc protein expression and anti-proliferative of LP and other cell types.

Stat3 [7] = assay: IL-6 mediated Stat3 activation immunoblot in LP cells; type: cell-based; settings: 3-25 μM
Protocol: as §6

[8] = test system: MM-1, Mino, WDT-2, WDT-3, K562, K562-R cell lines; assay: Anti-proliferative/apoptotic action on c-myc overexpressing cell lines (FIG. 5); type: cell-based; settings: FIG. 5, incl. Imatinib-resistant K562-R
Excerpt: The anti-proliferative/apoptotic actions of WP1066 were also examined on cell lines known to overexpress c-myc. […] Thus WP1066 clearly exerts a potent inhibition of cell proliferation and/or survival in multiple cancer cell lines, and WP1066 will be used as a therapeutic.

c-myc/Stat3 = assay: Stat3/c-myc inhibitory activity in MM-1 cells (FIG. 7); type: cell-based
Excerpt: An improved inhibition of c-myc/Stat3 by WP1066, WP1130, and WP1129 was observed (FIG. 7). The compounds were compared with regard to their Stat3/c-myc inhibitory activity in MM-1 cells.

Row | Structure (SMILES) | IC50 (OCI MM cells) [µM] | Growth and survival of OCI cells (in words) (OCI MM cells) | IC50 (MM-1 MM cells) [µM] | Growth and survival of MM1 cells (in words) (MM-1 MM cells) | Growth and survival of U266 cells (in words) (U266 MM cells) | IC50 (U266 MM cells) [µM] | c-myc expression, temporal effects (c-myc [1]) | C-Myc (c-myc [1]) | Suppression of IL-6 signaling (Stat3 activation) (Stat3 [2]) | P-Stat 3 (Stat3 [2]; immunoblot) | Caspase activation (caspase 3 and caspase 8) (OCI-My5 cells) | PARP cleavage (OCI-My5 cells) | other results
1 | N#C/C(=C\c1ccc(O)c(O)c1)C(=O)NCc1ccccc1 [AG 490, reference compound] | > 12.5 | effective in reducing the growth and survival | > 12.5 | effective in reducing the growth and survival | effective in reducing the growth and survival | > 12.5 | completely unable to affect c-myc expression | ↓ | inactive | ↓ | ineffective | ineffective | Inhibition of c-myc protein expression (c-myc [1]; 6, 12, 25 μM, AG490 up to 50 μM): little or no effect; P-Stat 3: concentration at which inhibition is seen (Stat3 [2]; immunoblot): > 25 µM; Inhibition of MM colony formation ([3]; 25 μM): less effective; Concentration needed to achieve inhibition of Jak2/Stat3 signaling and anti-tumor effects (Jak2/Stat3 signaling): 50 to 100 µM; Activity in animal studies [4]: limited activity
2 | N#C/C(=C\c1ccc([N+](=O)[O-])cc1)C(=O)NCc1ccccc1 [AG 1801] | 12 | effective in reducing the growth and survival; also recorded: demonstrated increased potency compared to AG490 | 7.5 | effective in reducing the growth and survival; also recorded: demonstrated increased potency compared to AG490 | effective in reducing the growth and survival; also recorded: demonstrated increased potency compared to AG490 | 9 | rapidly reduced c-myc expression | ↓ | effective in suppressing IL-6 signaling | ↓ | activated both upstream and downstream caspases | increased PARP clevage | Inhibition of MM colony formation ([3]; 12 μM): completely inhibited MM colony formation; c-myc mRNA expression (c-myc mRNA): minimal effects; Effect on IFN-α signaling (IFN-α signaling): without effecting IFN-α
3 | C[C@H](NC(=O)/C(C#N)=C/c1cccc(Br)n1)c1ccccc1 [WP 1066] | – | – | 1.3 | – | – | – | – | ↓ | – | – | – | – | Suppression of c-myc protein expression (c-myc [1]; 1.56-25 μM WP compounds, CHX 0-30 min at much higher concentrations): more active in suppressing c-myc protein expression than WP1015; Tumor size / tumor volume in vivo [5]: decrease tumor size; also recorded: reduces tumor volume; c-myc expression (c-myc [6]; LP cells, 3-25 μM): reduced c-myc expression; Downregulation of c-myc protein (c-myc [6]; LP cells, 5, 15, 30, 60 min): rapid downregulation of c-myc protein; Reduction in c-myc at shortest incubation (c-myc [6]; LP cells, 5 min): strong reduction; IL-6 mediated Stat3 activation (Stat3 [7]): blocked IL-6 mediated Stat3 activation; also recorded: slightly better activity than WP1015; Cell proliferation and/or survival in multiple cancer cell lines [8]: dose-dependent anti-tumor effects; also recorded: effective in reducing cell proliferation; Inhibition of c-myc/Stat3 (c-myc/Stat3): Strong inhibition

— patent US9096499B2, “Compounds for treatment of cell proliferative diseases” (Board of Regents, The University of Texas System, priority 2003, dated 2015)
